Measured values from patent US6420569B1, “Process for producing pyrone compounds” (Sumitomo Chemical Company, Limited, priority 2000, dated 2002).

Tested on: houseflies (Musca domestica)
Test: Knock-down test against housefly
Assay type: in vivo
Settings: 0.5% oil solution, 0.7 ml sprayed in 70 cm-cubic glass chamber; ten adult houseflies; 15 minutes after application; two repetitions
Protocol: (Knock-down Test Against Housefly)
A half part of 4-hydroxy-6-methyl-3-(4-methylpentanoyl)-2-pyrone was dissolved in 10 parts of dichloromethane and mixed with 89.5 parts of Isopar M (isoparaffin produced by Exxon Chemical) for preparing 0.5% oil solution. Part(s) means part(s) by weight.
Ten adult houseflies (Musca domestica) including 5 males and 5 females were released in a 70 cm-cubic glass chamber (volume: […]). By a spray-gun, 0.7 ml of the above oil solution was applied at a pressure of 0.9 kg/cm^2 from a small window on the wall of the chamber. After 15 minutes from application, knocked-down houseflies were observed. As a result of two repetitions, the knocked-down ratio was 95%.

Cc1cc(O)c(C(=O)CCC(C)C)c(=O)o1 [4-Hydroxy-6-methyl-3-(4-methylpentanoyl)-2-pyrone]
knocked-down ratio: 95%
